Experimental data taken from patent US20060069132A1, “Azolecarboxamide herbicides” (priority 2004, published 2006).

What was measured:
Experiment in all cases: Test C postemergence herbicide test
winter barley = format: in vivo, Hordeum vulgare; settings: for Barley, Winter plant response rating: 500 g ai/ha
Experimental: (§1) At the same time, plants selected from these crop and weed species and also winter barley (Hordeum vulgare L.), blackgrass (Alopecurus myosuroides Huds.), canarygrass (Phalaris minor Retz.), chickweed (Stellaria media (L.) Vill.), downy bromegrass (Bromus tectorum L.), green foxtail (Setaria viridis (L.) Beauv.), Italian ryegrass (Lolium multiflorum Lam.), wheat (Triticum aestivum L.), wild oat (Avenafatua L.) and windgrass (Apera spica-venti (L.) Beauv.) were treated with postemergence applications of some of the test chemicals formulated in the same manner. Plants ranged in height from 2 to 18 cm (1- to 4-leaf stage) for postemergence treatments. Plant species in the flooded paddy test consisted of rice (Oryza sativa), smallflower umbrella sedge (Cyperus difformis L.), ducksalad (Heteranthera limosa (Sw.) Willd.) and barnyardgrass (Echinochloa crus-galli (L.) Beauv.) grown to the 2-leaf stage for testing. Treated plants and controls were maintained in a greenhouse for 12 to 14 days, after which time all species were compared to controls and visually evaluated. Plant response ratings, summarized in Table C, are based on a scale of 0 to 100 where 0 is no effect and 100 is complete control. A dash (-) response means no test result.

blackgrass = format: in vivo, Alopecurus myosuroides; settings: for Blackgrass plant response rating: 500 g ai/ha
Experimental: as §1

canarygrass = format: in vivo, Phalaris minor
Experimental: as §1

green foxtail = format: in vivo, Setaria viridis
Experimental: as §1

Italian ryegrass = format: in vivo, Lolium multiflorum
Experimental: as §1

wild oat = format: in vivo, Avenafatua
Experimental: as §1

windgrass = format: in vivo, Apera spica-venti
Experimental: as §1

[1] = Postemergence, 125 g ai/ha, scale 0 to 100, 0 no effect, 100 complete control
[2] = Postemergence, 250 g ai/ha, scale 0 to 100, 0 no effect, 100 complete control
[3] = postemergence, 62 g ai/ha, scale 0 to 100 (0 no effect, 100 complete control)
[4] = postemergence, 125 g ai/ha, scale 0 to 100
[5] = postemergence, 62 g ai/ha, scale 0 to 100
[6] = Postemergence, 500 g ai/ha, scale 0 to 100, 0 no effect, 100 complete control
[7] = postemergence, 31 g ai/ha, scale 0 to 100
[8] = Postemergence, 500 g ai/ha, scale 0 to 100

## C=CCNC(=O)c1cccc(NC(=O)c2nn(C(C)(C)C)nc2CC)c1 [Compound 414]
Winter barley; Postemergence, scale 0 to 100
  Barley, Winter plant response rating: 45
Winter barley; [1]
  Plant response rating, Barley, Winter: 30
Winter barley; [2]
  Plant response rating, Barley, Winter: 45
Winter barley; [3]
  Plant response rating, Barley, Winter: 10
blackgrass; Postemergence, scale 0 to 100
  Blackgrass plant response rating: 60
blackgrass; [2]
  Plant response rating, Blackgrass: 45
blackgrass; [4]
  Plant response rating, Blackgrass: 40
blackgrass; [5]
  Plant response rating, Blackgrass: 40
canarygrass; [2]
  Plant response rating, Canarygrass: 50
canarygrass; [6]
  Plant response rating, Canarygrass: 60
canarygrass; [4]
  Plant response rating, Canarygrass: 45
canarygrass; [5]
  Plant response rating, Canarygrass: 45
Green foxtail; [2]
  Plant response rating, Foxtail, Green: 65
Green foxtail; [6]
  Plant response rating, Foxtail, Green: 65
Green foxtail; [4]
  Plant response rating, Foxtail, Green: 60
Green foxtail; [5]
  Plant response rating, Foxtail, Green: 60
Italian ryegrass; [6]
  Plant response rating, Ryegrass, Italian: 60
Italian ryegrass; [4]
  Plant response rating, Ryegrass, Italian: 55
Italian ryegrass; [5]
  Plant response rating, Ryegrass, Italian: 50
Wild oat; [6]
  Plant response rating, Oat, Wild: 55
Wild oat; [4]
  Plant response rating, Oat, Wild: 45
Wild oat; [5]
  Plant response rating, Oat, Wild: 35
windgrass; [6]
  Plant response rating, Windgrass: 65
windgrass; [4]
  Plant response rating, Windgrass: 60
windgrass; [5]
  Plant response rating, Windgrass: 55

## CCOC(=O)c1cccc(NC(=O)c2nn(C(C)(C)CC)nc2CC)c1 [Compound 375]
Winter barley; [1]
  Plant response rating, Barley, Winter: 30
Winter barley; [2]
  Plant response rating, Barley, Winter: 40
Winter barley; [7]
  Plant response rating, Barley, Winter: 10
Winter barley; [3]
  Plant response rating, Barley, Winter: 20
blackgrass; [2]
  Plant response rating, Blackgrass: 55
blackgrass; [4]
  Plant response rating, Blackgrass: 45
blackgrass; [7]
  Plant response rating, Blackgrass: 30
blackgrass; [5]
  Plant response rating, Blackgrass: 35
canarygrass; [2]
  Plant response rating, Canarygrass: 35
canarygrass; [4]
  Plant response rating, Canarygrass: 35
canarygrass; [7]
  Plant response rating, Canarygrass: 30
canarygrass; [5]
  Plant response rating, Canarygrass: 30
Green foxtail; [2]
  Plant response rating, Foxtail, Green: 65
Green foxtail; [4]
  Plant response rating, Foxtail, Green: 65
Green foxtail; [5]
  Plant response rating, Foxtail, Green: 50
Italian ryegrass; [4]
  Plant response rating, Ryegrass, Italian: 65
Italian ryegrass; [5]
  Plant response rating, Ryegrass, Italian: 65
Wild oat; [4]
  Plant response rating, Oat, Wild: 55
Wild oat; [5]
  Plant response rating, Oat, Wild: 45
windgrass; [4]
  Plant response rating, Windgrass: 60
windgrass; [5]
  Plant response rating, Windgrass: 40

## CCNC(=O)c1ccc(F)c(NC(=O)c2c3c(nn2CC)C(C)(C)CC3)c1 [Compound 353]
Winter barley; Postemergence, scale 0 to 100
  Barley, Winter plant response rating: 25
Winter barley; [1]
  Plant response rating, Barley, Winter: 15
Winter barley; [2]
  Plant response rating, Barley, Winter: 20
Winter barley; [3]
  Plant response rating, Barley, Winter: 5
blackgrass; Postemergence, scale 0 to 100
  Blackgrass plant response rating: 70
blackgrass; [2]
  Plant response rating, Blackgrass: 60
blackgrass; [4]
  Plant response rating, Blackgrass: 20
blackgrass; [5]
  Plant response rating, Blackgrass: 0
canarygrass; [2]
  Plant response rating, Canarygrass: 10
canarygrass; [6]
  Plant response rating, Canarygrass: 20
canarygrass; [4]
  Plant response rating, Canarygrass: 10
canarygrass; [5]
  Plant response rating, Canarygrass: 0
Green foxtail; [2]
  Plant response rating, Foxtail, Green: 20
Green foxtail; [6]
  Plant response rating, Foxtail, Green: 30
Green foxtail; [4]
  Plant response rating, Foxtail, Green: 20
Green foxtail; [5]
  Plant response rating, Foxtail, Green: 15
Italian ryegrass; [2]
  Plant response rating, Ryegrass, Italian: 15
Italian ryegrass; [6]
  Plant response rating, Ryegrass, Italian: 20
Italian ryegrass; [4]
  Plant response rating, Ryegrass, Italian: 15
Italian ryegrass; [5]
  Plant response rating, Ryegrass, Italian: 10
Wild oat; [2]
  Plant response rating, Oat, Wild: 40
Wild oat; [6]
  Plant response rating, Oat, Wild: 60
Wild oat; [4]
  Plant response rating, Oat, Wild: 30
Wild oat; [5]
  Plant response rating, Oat, Wild: 10
windgrass; [2]
  Plant response rating, Windgrass: 10
windgrass; [6]
  Plant response rating, Windgrass: 10
windgrass; [4]
  Plant response rating, Windgrass: 10
windgrass; [5]
  Plant response rating, Windgrass: 0

## CCn1nc(C(C)(C)C)cc1C(=O)Nc1cccc(OC(F)F)c1 [Compound 332]
Winter barley; Postemergence, scale 0 to 100
  Barley, Winter plant response rating: 40
Winter barley; [1]
  Plant response rating, Barley, Winter: 35
Winter barley; [2]
  Plant response rating, Barley, Winter: 40
Winter barley; [3]
  Plant response rating, Barley, Winter: 35
blackgrass; Postemergence, scale 0 to 100
  Blackgrass plant response rating: 70
blackgrass; [2]
  Plant response rating, Blackgrass: 100
blackgrass; [4]
  Plant response rating, Blackgrass: 70
blackgrass; [5]
  Plant response rating, Blackgrass: 60
canarygrass; [8]
  Canarygrass plant response rating: 70
canarygrass; [2]
  Plant response rating, Canarygrass: 60
canarygrass; [4]
  Plant response rating, Canarygrass: 45
canarygrass; [5]
  Plant response rating, Canarygrass: 35
Green foxtail; [8]
  Foxtail, Green plant response rating: 70
Green foxtail; [2]
  Plant response rating, Foxtail, Green: 50
Green foxtail; [4]
  Plant response rating, Foxtail, Green: 40
Green foxtail; [5]
  Plant response rating, Foxtail, Green: 35
Italian ryegrass; [8]
  Ryegrass, Italian plant response rating: 70
Italian ryegrass; [2]
  Plant response rating, Ryegrass, Italian: 70
Italian ryegrass; [4]
  Plant response rating, Ryegrass, Italian: 60
Italian ryegrass; [5]
  Plant response rating, Ryegrass, Italian: 60
Wild oat; [8]
  Oat, Wild plant response rating: 70
Wild oat; [2]
  Plant response rating, Oat, Wild: 70
Wild oat; [4]
  Plant response rating, Oat, Wild: 65
Wild oat; [5]
  Plant response rating, Oat, Wild: 50
windgrass; [8]
  Windgrass plant response rating: 75
windgrass; [2]
  Plant response rating, Windgrass: 65
windgrass; [4]
  Plant response rating, Windgrass: 60
windgrass; [5]
  Plant response rating, Windgrass: 35

## CCn1nc(C(C)(C)C)cc1C(=O)Nc1cc(C(=S)N(C)C)ccn1 [Compound 334]
Winter barley; [1]
  Plant response rating, Barley, Winter: 30
Winter barley; [2]
  Plant response rating, Barley, Winter: 30
Winter barley; [7]
  Plant response rating, Barley, Winter: 20
Winter barley; [3]
  Plant response rating, Barley, Winter: 20
blackgrass; [2]
  Plant response rating, Blackgrass: 95
blackgrass; [4]
  Plant response rating, Blackgrass: 95
blackgrass; [7]
  Plant response rating, Blackgrass: 75
blackgrass; [5]
  Plant response rating, Blackgrass: 90
canarygrass; [2]
  Plant response rating, Canarygrass: 45
canarygrass; [4]
  Plant response rating, Canarygrass: 35
canarygrass; [7]
  Plant response rating, Canarygrass: 20
canarygrass; [5]
  Plant response rating, Canarygrass: 25
Green foxtail; [2]
  Plant response rating, Foxtail, Green: 45
Green foxtail; [4]
  Plant response rating, Foxtail, Green: 35
Green foxtail; [5]
  Plant response rating, Foxtail, Green: 35
Italian ryegrass; [2]
  Plant response rating, Ryegrass, Italian: 45
Italian ryegrass; [4]
  Plant response rating, Ryegrass, Italian: 35
Italian ryegrass; [5]
  Plant response rating, Ryegrass, Italian: 30
Wild oat; [2]
  Plant response rating, Oat, Wild: 95
Wild oat; [4]
  Plant response rating, Oat, Wild: 75
Wild oat; [5]
  Plant response rating, Oat, Wild: 55
windgrass; [2]
  Plant response rating, Windgrass: 75
windgrass; [4]
  Plant response rating, Windgrass: 60
windgrass; [5]
  Plant response rating, Windgrass: 60
